# Reference: patent publication US9458200B2, “Method for producing intermediates for the production of novel macrocycles that are inhibitors of the proteasomic degradation of p27, such as argyrin and derivatives thereof, and uses of said macrocycles” (Gottfried Wilhelm Leibniz Universität Hannover, priority 2008, dated 2016)
# Starred links: 1 amine or outer side, 2 acyl side, 3 side chain; linkers in the order of their positions; H or OH if unused. Non-standard residues stand in square brackets, D forms with d. Residues, ends and D or L forms follow the SMILES beside them. Trp(4-OMe) = COc1cccc2[nH]cc(C[C@H](N)C(=O)O)c12; X1 = O=C(c1csc([C@@H](CO)N[*:1])n1)[*:2]; Dha = C=C(N)C(=O)O; Sar = CNCC(=O)O
# Tests used:
# [1] = test system: SW-480 (colon cancer cell line); assay: MTT-test, proliferation of SW-480; format: cell-based
# Description: MTT assays were done as previously described (Sasse, F. et al. Argyrins, immunosuppressive cyclic peptides from myxobacteria. I. Production, isolation, physico-chemical and biological properties. J Antibiot (Tokyo) 55, 543-51 (2002)). TUNEL staining of tissue sections was performed on 10 micrometer sections which were deparafinised and treated as recommended by the manufacturer. (In Situ Cell Death Detection Kit, Fluorescein; ROCHE, Cat #11 684 795 910). Flow cytometric analysis of cultured cells was done using a Becton Dickinson fluorescence cytometer as previously described (Malek, N.P. et al. A mouse knock-in model exposes sequential proteolytic pathways that regulate p27^Kip1 in G1 and S phase. Nature 413, 323-7 (2001)). Analysis of the distribution of cells in the cell cycle and the sub-G1 fraction was done using Cell Quest software. A histone-associated-DNA-fragments ELISA was used to determine the number of apoptotic cells according to manufacturers instructions (Roche #11 774425001).
# [2] = molecular target: T1, erythrocyte-derived 20S proteasome, trypsin-like activity (Homo sapiens, UniProt P49720+Q99436); assay: 20S-Proteasome-Test (manual), trypsin-like substrate; format: biochemical
# T1 construct: using erythrocyte-derived 20S proteasome; purchased Biomol International PW8720; host or cells: human erythrocytes
# Description: (§1) Proteasome assays with purified 20S proteasome were performed as previously described (Lightcap, E. S. et al. Proteasome inhibition measurements: clinical application. Clin Chem 46, 673-83 (2000)) using erythrocyte-derived 20S proteasome (Biomol International,#LP PW8720) and fluorometric substrates Succ-LLVY-AMC, BZ-VGR-AMC and Z-Lle-AMC (Biomol International, LP PW9905) as probes according to the manufacturers instructions. Proteasome extraction from cells and tumor sections was done as previously described (Crawford, L. J. et al. Comparative selectivity and specificity of the proteasome inhibitors BzLLLCOCHO, PS-341, and MG-132. Cancer Res 66, 6379-86 (2006)). Briefly cells (MEF or MCF-7) or tissue sample homogenate (tumor sections) were re-suspended in 1 mL ATP/DTT lysis buffer (10 mmol/L Tris-HCl (pH7.8), 5 mmol/L ATP, 0.5 mmol/L DTT, 5 mmol/L MgCl2), and incubated on ice for 10 minutes, followed by sonication for 15 seconds. The lysates were centrifuged at 400×g for 10 min at 4° C., and the resulting supernatant containing proteasomes was stable at −80° C. with the addition of 20% glycerol for at least 1 month. Protein concentration of the samples was measured using a coomassie protein assay (Pierce, Rockford, Ill.).
# (§2) Proteasome assays with purified 20S proteasome were performed as previously described (Lightcap et al., 2000) using erythrocyte-derived 20S proteasome (Biomol International,#LP PW8720) and fluorometric substrates Succ-LLVY-AMC, BZ-VGR-AMC and Z-Lle-AMC (Biomol International, LP PW9905). Proteasome extraction from cells and tumor sections was done as previously described (Crawford et al., 2006). For proteasome extraction from whole blood, frozen whole blood cell pellets were thawed and lysed in 2-3 pellet volumes cold lysis buffer (5 mM EDTA, pH 8.0). […] The rate of cleavage of fluorogenic peptide substrates was determined by monitoring the fluorescence of released aminomethylcoumarin using a Victor 1420 Multilabel counter (Wallac) at an excitation wavelength of 395 nm and emission wavelength of 460 nm over a period of 60 min. […]
# [3] = molecular target: T2, erythrocyte-derived 20S proteasome, caspase-like activity (Homo sapiens, UniProt P28072+Q99436); assay: 20S-Proteasome-Test (manual), caspase-like substrate; format: biochemical
# T2 construct: using erythrocyte-derived 20S proteasome; purchased Biomol International PW8720; host or cells: human erythrocytes
# Description: as §1, §2
# [4] = test system: SW-480 (colon cancer); assay: MIC (visual), serial dilution, SW-480 cells; format: cell-based; conditions: minimal concentration of a serial dilution exhibiting a visual effect
# From the text: (§3) The following table summarizes the effects of […]-derivatives B and F on two cancer cell lines, H15 (cervix carcinoma) and SW-480 (colon cancer). In order to test the efficacy, a p27-GFP-clone was used. [table]
# [5] = molecular target: T3, erythrocyte-derived 20S proteasome, chymotrypsin-like activity (Homo sapiens, UniProt P20618+P28074); assay: 20S-Proteasome-Test (manual), chymotrypsin-like substrate; format: biochemical
# T3 construct: using erythrocyte-derived 20S proteasome; purchased Biomol International PW8720; host or cells: human erythrocytes
# Description: as §1, §2
# [6] = test system: H15GFP-p27 clone (HeLa-cell line; cervix-carcinoma); assay: GFP-fluorescence per FACS of p27-GFP clone H15GFP-p27; format: cell-based; conditions: GFP-fluorescence per FACS after 24 h incubation, 500 ng/ml
# From the text: as §3
# [7] = test system: H15 (cervix carcinoma); assay: MIC (visual), serial dilution, H15 cells; format: cell-based; conditions: minimal concentration of a serial dilution exhibiting a visual effect
# From the text: as §3
# [8] = test system: T4, 20S proteasome; assay: Proteasome-assay, overall comparison in words (all three subunits); format: biochemical, human; conditions: compared with argyrin F
# T4 construct: using erythrocyte-derived 20S proteasome; purchased Biomol International PW8720; host or cells: human erythrocytes
# Description: as §1
# Proteasome assays with purified 20S proteasome were performed as previously described (Lightcap et al., 2000) using erythrocyte-derived 20S proteasome (Biomol International,#LP PW8720) and fluorometric substrates Succ-LLVY-AMC, BZ-VGR-AMC and Z-Lle-AMC (Biomol International, LP PW9905). Proteasome extraction from cells and tumor sections was done as previously described (Crawford et al., 2006). For proteasome extraction from whole blood, frozen whole blood cell pellets were thawed and lysed in 2-3 pellet volumes cold lysis buffer (5 mM EDTA, pH 8.0). Lysates were spun down at 4° C. and the supernatant was transferred to a fresh tube. 5 μl was taken for the determination of protein concentration using a coomassie protein assay (Pierce, Rockford, Ill.). Proteasome assays using proteasome purified from cells or tissues were carried out in a 100 μL reaction volume containing 20 μg proteasome extract, 50 mmol/L EDTA and 60 μmol/L fluorogenic substrate (chymotrypsin-like(CT-L), trypsin-like(T-L) or caspase-like (C-L)) in ATP/DTT lysis buffer at 37° C. The assay buffer was supplemented with a final concentration of 0.05% SDS for the evalution of the chymotrypsin-like activity and caspase-like activity. The rate of cleavage of fluorogenic peptide substrates was determined by monitoring the fluorescence of released aminomethylcoumarin using a Victor 1420 Multilabel counter (Wallac) at an excitation wavelength of 395 nm and emission wavelength of 460 nm over a period of 60 min.
Molecule,"IC50 ([1]; Homo sapiens, SW480, half-maximal inhibition of proliferation, read-out: IC-50 SW-480)",rel. activ. in % after 20 min. ([2]; conc. in test 200 μmol/L),rel. activ. in % after 20 min. ([3]; conc. in test 200 μmol/L),MIC (visual) SW-480 [4],rel. activ. in % after 20 min. ([5]; conc. in test 200 μmol/L),Mean of FSC-H (Log) H15 p27-GFP-clone [6],MIC (visual) HIS [7],"inhibiting effect on the proteasome, compared in words [8]","inhibiting effect on the proteasome, compared in words ([8]; listed as Argyrin Ala alpha)",rel. activ. in % after 20 min. ([2]; conc. in test 100 μmol/L),rel. activ. in % after 20 min. ([3]; conc. in test 100 μmol/L),rel. activ. in % after 20 min. ([5]; conc. in test 100 μmol/L),"inhibiting effect on the proteasome, compared in words ([8]; listed as argyrin Ala beta)",IC-50 SW-480 ([1]; half-maximal inhibition of proliferation)
C=C1NC(=O)[C@@H](C)NC(=O)CNC(=O)[C@H](Cc2c[nH]c3cccc(OC)c23)NC(=O)[C@H](Cc2c[nH]c3ccccc23)NC(=O)c2csc(n2)[C@@H](CO)NC(=O)CN(C)C1=O [Argyrin F] (cyclo([Dha][Sar][X1]W[Trp(4-OMe)]G[dA])),0.05 mg/L,32%,17%,0.2 mg/L,15%,11.24,0.5 mg/L,–,–,–,–,–,–,–
C=C1NC(=O)[C@@H](C)NC(=O)[C@@H](C)NC(=O)[C@H](Cc2c[nH]c3cccc(OC)c23)NC(=O)[C@H](Cc2c[nH]c3ccccc23)NC(=O)c2csc(n2)[C@@H](CO)NC(=O)CN(C)C1=O [Argyrin ala alpha] (cyclo([Dha][Sar][X1]W[Trp(4-OMe)][dA][dA])),–,–,–,–,–,–,–,higher activities than Argyrin F,slightly less active,72%,11%,17%,–,–
C=C1NC(=O)[C@@H](C)NC(=O)[C@H](C)NC(=O)[C@H](Cc2c[nH]c3cccc(OC)c23)NC(=O)[C@H](Cc2c[nH]c3ccccc23)NC(=O)c2csc(n2)[C@@H](CO)NC(=O)CN(C)C1=O [Argyrin ala beta] (cyclo(A[dA][Dha][Sar][X1]W[Trp(4-OMe)])),–,–,–,–,–,–,–,higher activities than Argyrin F,–,26%,7%,8%,stronger inhibiting effect on the proteasome than argyrin F,–
Argyrin B,–,–,–,12 mg/L,–,7.60,12 mg/L,–,–,–,–,–,–,Ca. 0.05 μg/ml
